Measurements as given in patent publication US6448430B1, “Process for the preparation of aryl carboxylate esters” (priority 1999, dated 2002).

Assay: Solubility of NOBS in selected solvents
Format: physicochemical
Conditions: TFA versus acetic acid; ambient temperature
Excerpt: The solvent properties of TFA are unique and highly advantageous in the synthesis of phenolsulfonate esters. […] It is notable that the only solvent in which NOBS is more soluble than water is TFA. I have found no better solvent for NOBS than TFA. This is surprising. […] It is likely that hydrogen bonding in TFA facilitates the solvation of sulfonate anions but it is notable, in contrast, that such effects are much weaker in acetic acid. Furthermore, while it is known in the art that dimethyl sulfoxide (DMSO) and dimethylformamide (DMF) are relatively good solvents for benzenesulfonate esters they are much weaker solvents than TFA and because TFA has a much lower boiling point than these dipolar aprotic solvents it is the only good solvent for benzenesulfonate esters which can be readily stripped from product solutions and then purified and recycled with relative ease.

CCCCCCCCC(=O)Oc1ccc(S(=O)(=O)[O-])cc1.[Na+] [NOBS, sodium 4-(nonanoyloxy)benzene sulfonate]
Amount of NOBS dissolved by TFA relative to the amount soluble in acetic acid: more than ten times
